Measured values reported in PMC6232958 (Molecular Biology of the Cell, 2018).

System: CRM1-mediated nuclear export of EYFP2-SV40NLS-NES reporter in HeLa cells
Test: Inhibition of reporter nuclear export by cotransfected RFP-NES or by LMB
Assay type: cell-based
Conditions: HeLa cells expressing EYFP2-SV40NLS-PKI NES treated with LMB (5 nM, 16-18 h)

CCC(=C/[C@H](C)C/C=C/C(C)=C/[C@@H](C)C(=O)[C@@H](C)[C@H](O)[C@@H](C)C/C(C)=C/C(=O)O)/C=C/[C@@H]1OC(=O)C=C[C@@H]1C [leptomycin B]
decrease of nuclear export of PKI NES: 92%
